The results in this text go back to patent publication US12365643B2, “Phenoxy carboxylic acid compounds and medical uses thereof” (QINGDAO RISING BIOTECHNOLOGY CO., LTD, priority 2018, dated 2025).

One series concerns ACOX1. Briefly: ACOX1 mRNA expression by real-time quantitative PCR in HepG2. In kind it is cell-based, human. The conditions noted are these: 1 μM, 6 hours, HepG2 (FIG. 5D). The text has this:
(§1) Peroxisome proliferation factor activated receptor (PPAR) is an important nuclear receptor that regulates glycolipid metabolism, including three subtypes: α, β/δ and γ. Peroxisome proliferator-activated receptor γ coactivator 1α (PGC-1α) is its auxiliary transcriptional activator. Acyl-CoA oxidase 1 (ACOX1) is the first rate-limiting enzyme for fatty acid β oxidation. Fatty acid binding protein 1 (FABP1) is highly expressed in liver, and can bind fatty acid, heme and other molecules to reduce their toxicity and damage. Up-regulating the expression level of these genes helps to improve the body's metabolism, and their agonists are an important class of anti-metabolic drugs. After the compound of the present application (1 μM) and the control drug gemfibrozil (1 μM) were incubated with human liver cancer cells HepG2 for 6 hours, real-time fluorescent quantitative PCR method was used to determine the relative expression of mRNA of related genes in the cells.
(§2) The company which synthesized the primers was Suzhou Hongxun Biotechnology Co., Ltd. Tranzol reagent (Tranzol total RNA extraction reagent, TransGen Biotech) was used to extract total RNA from tissues. 5× All-In-One RT MasterMix reverse transcription kit (Abcam, USA) and real-time quantitative PCR Master Mix (Aidlab Biotechnologies Co., Ltd) were used. Bio-Rad CFX Connect™ Real-Time PCR Detection System for qPCR was used, and 2^−ΔΔCT method was used for data analysis. The expression level of mRNA in the normal control group was set to 1, and the relative expression level of mRNA in the administration group was calculated, so as to confirm whether the active compound affected the PPAR pathway, thereby further regulating lipid metabolism.

The test system of series [1] is diabetes mellitus+NASH model mice. The series is described as follows: Diabetes mellitus + non-alcoholic steatohepatitis (NASH) model. In kind it is in vivo, mouse. The conditions noted are these: for AHDL (high density lipoprotein) / ALDL (low density lipoprotein) / ALT / AST / BUN / CHOL (total cholesterol) / CK / CREA / TGL (triglycerides) / activity of lowering triglycerides (in words) / total cholesterol content in blood (in words): 50 mg/kg intragastric once a day for 28 days; for blood glucose level: 50 mg/kg intragastric once a day for 28 days (FIG. 9); for body fat content (MRI): 50 mg/kg intragastric once a day for 28 days (FIG. 10); for weight ratio of epididymal white fat: 50 mg/kg intragastric once a day for 28 days (FIG. 11); for fat content in liver (Oil red O and H.E. staining): 50 mg/kg intragastric once a day for 28 days (FIGS. 12A-12B); for blood glucose level 14 days after the administration: 50 mg/kg intragastric once a day, day 14. How it is done: Animal model: Each db/db mouse was injected subcutaneously with 40% CCl4 solution (Beijing Tongguang Fine Chemical Co., Ltd.) at a dose of 0.72 mg/100 g for 4 consecutive weeks to obtain a diabetes mellitus+NASH model. In the experiment, 35 of the above model mice were used, and animals with blood glucose of about 7 to 13 mmol/L were selected. According to their blood glucose levels, they were randomly divided into a blank control group, a model group, a BJMU group (gemfibrozil), a BJMU-1 group, a BJMU-2 Group and a BJMU-3 group, 7 animals in each group (the model group and each administration group were modeled according to the animal modeling method). Intragastric administration was adopted with an administration volume of 10 ml/kg. The blank control group and the model group were administrated with 1% Tween 80-saline; the BJMU group was administrated with a dose of 50 mg/kg, the BJMU-1 group was administrated with a dose of 50 mg/kg, the BJMU-2 group was administrated with a dose of 50 mg/kg, and the BJMU-3 group was administrated with a dose of 50 mg/kg. The administration was performed once a day for 28 consecutive days. From the day of oral administration, the physiological changes of the animals were observed every day. Blood glucose was measured every week, and blood glucose difference (Δ) was calculated by the following formula: blood glucose difference (Δ)=the blood glucose of the day—the initial blood glucose (the initial blood glucose difference was zero). After the administration, the animals were sacrificed, and the internal organs and epididymal fat were taken out for experiments. White epididymal fat was taken from each group of mice and weighed. According to the corresponding body weight, the weight ratio of white fat was calculated. Before the mice were sacrificed, 3 mice in each group were randomly selected and subjected to magnetic resonance imaging (MRI) (EchoMRI-700 body fat tester) so as to measure body fat content. For mice in each experimental group, blood was collected and serum was separated, and liver was taken for wet-weight measurement after necropsy; liver tissue was taken and fixed for pathological examination, H.E. staining and oil red O staining (Wuhan Zishan Biotechnology Co., Ltd.) were performed, and mouse liver lesions were observed under light microscope; routine examination of blood was performed by Animal Laboratory Department, Health Science Center of Peking University to measure the following indexes: white blood cell count (WBC), red blood cell count (RBC), lymphocyte count (LY), platelet (PLT) and so on; biochemical laboratory examination of blood was performed by Laboratory Medicine, Third Hospital, Peking University to measure the following indexes: triglycerides (TG), total cholesterol (T-CHO), high-density lipoprotein cholesterol (HDL-C), low-density lipoprotein cholesterol (LDL-C) and so on.

The next series relates to phosphorylated IRS-1. The series is described as follows: Phosphorylated IRS-1 level by Western blotting in HepG2. In kind it is cell-based, human. The conditions noted are these: 1 μM, 24 hours, HepG2, Western blotting (FIG. 6C). An excerpt:
(§3) Carnitine palmitoyltransferase (CPT1α) is a rate-limiting enzyme of fatty acid oxidation. When the body or tissues are lacking in energy, CPT1α catalyzes the entry of fatty acids into mitochondria for […], and at the same time, CPT1α is also involved in the regulation of fatty acid-induced insulin resistance and inflammation. Protein kinase B/glycogen synthase kinase 3β (AKT/GSK3β) signaling pathway and insulin receptor substrate 1 (IRS-1) are key signaling pathways that regulate glucose metabolism in response to insulin signal. Therefore, by determining the effects of compounds on the CPT1α protein level and the AKT, GSK3β and IRS-1 protein phosphorylation levels, it is possible to evaluate the regulatory effects of the compounds on glycolipid metabolism.
(§4) After human liver cancer cells HepG2 were incubated with the compound of the present application or the control drug at 1 μM for 24 hours, the CPT1α protein level and the AKT, GSK3β and IRS-1 phosphorylated protein levels in the cells were determined by Western blotting; after gray-scale scanning by using Image J15.0.1, normalization was performed by using β-tubulin protein level as internal control, and the quantitative analysis results were shown in FIG. 6.

The next series deals with PPARγ. Briefly: PPARγ mRNA expression by real-time quantitative PCR in HepG2. In kind it is cell-based, human. The conditions noted are these: 1 μM, 6 hours, HepG2 (FIG. 5B).
From the text: as §1, §2

The test system of a further series is CPT1α. The series is described as follows: CPT1α protein level by Western blotting in HepG2. The conditions noted are these: 1 μM, 24 hours, HepG2, Western blotting (FIG. 6A). In kind it is cell-based, human.
From the text: as §3, §4
A general note: In western blotting, separated proteins are transferred to a membrane and probed.

Each structure is given as a SMILES string.

In the case of `Cc1cc(OCCCC(C)(C)C(=O)O)c(C)cc1F` [BJMU-3, 5-(4-fluoro-2,5-dimethylphenoxy)-2,2-dimethylpentanoic acid], the “ACOX1 mRNA expression” value in the series on ACOX1 was “significantly induced ACOX1 mRNA expression”. Moreover, in series [1], the “AHDL (high density lipoprotein)” value is reported as 2.27 ± 0.84 mmol/L, the “ALDL (low density lipoprotein)” value is listed as 0.52 ± 0.14 mmol/L, the ALT is reported as 125.14 ± 51.99 U/L and the AST is 257 ± 83 U/L. In addition, in series [1], the BUN is 9.29 ± 3.44 mmol/L, the “CHOL (total cholesterol)” value was found to be 4.42 ± 1.77 mmol/L, the CK came to 1674.71 ± 864.05 U/L and the CREA was 21.33 ± 10.52 µmol/L. Besides, in series [1], the “TGL (triglycerides)” value was 1.86 ± 0.99 mmol/L, the “activity of lowering triglycerides (in words)” value is listed as “had better activity of lowering triglycerides than gemfibrozil”, the blood glucose level entry was “could significantly reduce the blood glucose level” and the “body fat content (MRI)” value is given as “could significantly reduce the body fat content”. Also, in series [1], the “weight ratio of epididymal white fat” value is “could significantly reduce the weight ratio of mouse epididymal fat”; the “fat content in liver (Oil red O and H.E. staining)” value (“fat content in liver” below) was “could significantly reduce the fat content in liver”; the “blood glucose level 14 days after the administration” value (“blood glucose level 14 days” for short) is reported as “almost returned to the normal level”. In addition, in the series with phosphorylated IRS-1, the “phosphorylation level of IRS-1” value is recorded as “significantly increased the phosphorylation level of IRS-1”. For the same compound, the “PPARγ mRNA expression” value in the series with PPARγ was “significantly induced PPARγ mRNA expression”.
On to `Cc1cc(OCCCC(C)(C)C(=O)O)c(C)cc1Br` [BJMU-2, 5-(4-bromo-2,5-dimethylphenoxy)-2,2-dimethylpentanoic acid], for which the CPT1α protein level entry in the series on CPT1α is on record as “significantly increased CPT1α protein level”. Further, the “ACOX1 mRNA expression” value with ACOX1 is reported as “significantly induced ACOX1 mRNA expression”. In addition, in series [1], the “AHDL (high density lipoprotein)” value is on record as 2.15 ± 0.29 mmol/L, the “ALDL (low density lipoprotein)” value turned out to be 0.48 ± 0.05 mmol/L, the ALT turned out to be 115.57 ± 39.12 U/L and the AST came out at 233.67 ± 47.75 U/L. Besides, in series [1], the BUN turned out to be 11.95 ± 1.81 mmol/L, the “CHOL (total cholesterol)” value is recorded as 3.78 ± 0.45 mmol/L, the CK stood at 1406.33 ± 458.77 U/L and the CREA stood at 22.5 ± 7.12 µmol/L. Further, in series [1], the “TGL (triglycerides)” value was determined as 1.73 ± 0.41 mmol/L, the “activity of lowering triglycerides (in words)” value is “had better activity of lowering triglycerides than gemfibrozil”, the “total cholesterol content in blood (in words)” value was “could reduce total cholesterol content in blood” and the blood glucose level result is reported as “could significantly reduce the blood glucose level”. Besides, in series [1], the “body fat content (MRI)” value is recorded as “could significantly reduce the body fat content”; the “weight ratio of epididymal white fat” value is given as “could significantly reduce the weight ratio of mouse epididymal fat”; the “fat content in liver” value is “could significantly reduce the fat content in liver”; the “blood glucose level 14 days” value was “almost returned to the normal level”. Further, the “phosphorylation level of IRS-1” value in the series on phosphorylated IRS-1 was “significantly increased the phosphorylation level of IRS-1”. For the same compound, the “PPARγ mRNA expression” value with PPARγ is “significantly induced PPARγ mRNA expression”.
On to `Cc1cc(OCCCC(C)(C)C(=O)O)c(C)cc1Cl` [BJMU-1, 5-(4-chloro-2,5-dimethylphenoxy)-2,2-dimethylpentanoic acid], for which the CPT1α protein level entry with CPT1α is reported as “significantly increased CPT1α protein level”. For the same compound, in the series on ACOX1, the “ACOX1 mRNA expression” value is recorded as “significantly induced ACOX1 mRNA expression”. Also, in series [1], the “AHDL (high density lipoprotein)” value is recorded as 2.34 ± 0.24 mmol/L, the “ALDL (low density lipoprotein)” value came out at 0.49 ± 0.06 mmol/L, the ALT was 114.86 ± 51.2 U/L and the AST is recorded as 216.43 ± 60.6 U/L. In series [1], the BUN is listed as 9.89 ± 1.31 mmol/L, the “CHOL (total cholesterol)” value was found to be 4.85 ± 0.7 mmol/L, the CK is on record as 1297.71 ± 814.48 U/L and the CREA stood at 19 ± 1.63 µmol/L. Also, in series [1], the “TGL (triglycerides)” value stood at 1.77 ± 0.65 mmol/L, the “activity of lowering triglycerides (in words)” value was “had better activity of lowering triglycerides than gemfibrozil”, the blood glucose level entry was “could significantly reduce the blood glucose level” and the “body fat content (MRI)” value was “could significantly reduce the body fat content”. For the same compound, in series [1], the “fat content in liver” value is recorded as “could significantly reduce the fat content in liver”; the “blood glucose level 14 days” value is reported as “almost returned to the normal level”.
Turning to `Cc1ccc(C)c(OCCCC(C)(C)C(=O)O)c1` [gemfibrozil, Gemfibrozil, reference compound], in the series with ACOX1, the “ACOX1 mRNA expression” value is “could not activate ACOX1 expression”. In series [1], the “AHDL (high density lipoprotein)” value is on record as 2.68 ± 0.31 mmol/L, the “ALDL (low density lipoprotein)” value is on record as 0.7 ± 0.16 mmol/L, the ALT is recorded as 134.14 ± 38.71 U/L and the AST stood at 235.14 ± 41.06 U/L. Also, in series [1], the BUN is reported as 11.96 ± 2.26 mmol/L, the “CHOL (total cholesterol)” value is given as 5.37 ± 0.88 mmol/L, the CK is on record as 1222.14 ± 392.96 U/L and the CREA turned out to be 22.29 ± 3.45 µmol/L. In series [1], the “TGL (triglycerides)” value was determined as 1.86 ± 0.66 mmol/L, the “total cholesterol content in blood (in words)” value is on record as “did not show an activity of lowering total cholesterol in blood”, the blood glucose level result was “did not exhibit significant hypoglycemic activity” and the “body fat content (MRI)” value is on record as “did not show an activity of reducing body fat”. Moreover, the “fat content in liver” value in series [1] is given as “did not exhibit the aforementioned activity”.
